Results as given in patent US8961970B2, “Combination therapy” (Novartis AG, priority 2012, dated 2015).

Tests used:
AsPC-1 cells = experiment: Cell proliferation / viability assay (CellTiter-Glo, dose matrix) in AsPC-1 cells; type: cell-based
Procedure: (§1) A cell proliferation assay was performed to investigate the activity of the combination of COMPOUND A and ANTIBODY A on Insulin-like Growth Factor 1 (IGF1)-induced proliferation of the KRAS mutant cell lines Miapaca-2 and AsPC-1. To evaluate the combination effect in a non-biased way, and to identify synergistic effects at different concentrations, the study was conducted using a “dose matrix” scheme (described in detail below).
(§2) COMPOUND A (10 mM) was stored in aliquots at −20° C. ANTIBODY A (0.2 mM in 1% BSA) was stored in aliquots at 4° C. Insulin-like Growth Factor-1 (IGF1; R&D System, Cat #291-G1) was reconstituted at 100 ug/mL in sterile Phosphate Buffered Saline (PBS).
(§3) The KRAS mutant, pancreatic cancer cell lines Miapaca-2 and AsPC-1 were cultured in DMEM medium (ATCC Cat #30-2002) and RPMI-1640 (ATCC Cat #30-2001) plus 10% Fetal Bovine Serum (FBS; Invitrogen Cat #10099-141) as recommended by the supplier. Cells were cultured in T-150 flasks using standard cell culture techniques and split upon reaching 80% confluency. TryPLE Express (Invitrogen #12604-013, no phenal red) was used for all cell dissociation. Cell count and viability were measured using Trypan dye exclusion with a ViCell counter (Beckman-Coulture). Cells were determined to be free of Mycoplasma using a PCR detection method (www.radil.missouri.edu). […]

Miapaca-2 cells = experiment: Cell proliferation / viability assay (CellTiter-Glo, dose matrix) in Miapaca-2 cells; type: cell-based
Procedure: as §1, §2, §3

## Cn1cnc2c(F)c(Nc3ccc(Br)cc3F)c(C(=O)NOCCO)cc21 [COMPOUND A, 6-(4-bromo-2-fluorophenylamino)-7-fluoro-3-methyl-3H-benzoimidazole-5-carboxylic acid (2-hydroxyethyoxy)-amide]
AsPC-1 cells; AsPC-1, KRAS mutant pancreatic cancer cell line, 120 hours incubation, presence and absence of IGF1 (100 ng/ml)
  single agent anti-proliferative activity: concentration dependent anti-proliferative activity
AsPC-1 cells; AsPC-1, with versus without IGF1
  effect of addition of IGF1 on single agent activity: slightly dampen
Miapaca-2 cells; Miapaca-2, KRAS mutant pancreatic cancer cell line, 120 hours incubation, presence and absence of IGF1 (100 ng/ml)
  single agent anti-proliferative activity: concentration dependent anti-proliferative activity
Miapaca-2 cells; Miapaca-2, with versus without IGF1
  effect of addition of IGF1 on single agent activity: slightly dampen
